US20240217970A1, “PHTHALIMIDO CEREBLON COMPLEX BINDERS AND TRANSCRIPTION FACTOR DEGRADERS AND METHODS OF USE” (DANA-FARBER CANCER INSTITUTE, INC., priority 2021, published 2024)

What was measured:
IKZF2 (Helios) = target: T1, IKZF2 (Helios) (Homo sapiens, UniProt Q96SW2+Q9UKS7); test: HiBiT-IKZF2 degradation assay in MOLT4 cells; format: cell-based; details: for inhibition at 10 µM: MOLT-4, 10 μM; for DC50: concentration at which 50% of HiBiT-Helios degradation was achieved, read-out: Cellular Degradation - IKZF2 DC50
T1 construct: endogenous in cells; host or cells: MOLT4 (CRISPR/Cas knock-in of HiBiT at the endogenous IKZF2 locus)
Protocol: The HiBiT protein tagging system was applied to MOLT4 cells via a CRISPR/Cas-mediated insertion of the HiBiT peptide tag (Promega™) to the N-terminus of the IKZF2 gene locus (Neon™ Transfection System). The resulting HiBiT-Helios stable cell line was treated with inventive compounds 1-10 in triplicates following a 13-point concentration scheme ranging from 10 μM to 0.00026 μM. At the indicated timepoints, the Nano-Glo® HiBiT Lytic Detection system (Promega™) was utilized for detecting bioluminescence of the HiBiT tag in treated cells: the abundance of the tag is proportionate to the level of luminescence. Following normalization to DMSO, dose-response curves were plotted (GraphPad Prism) to determine the concentration points at which 50% of HiBiT-Helios degradation was achieved by each compound. The extent of degradation (range of luminescence) from the highest to lowest concentration points was calculated to determine Dmax.

CRBN (NanoLuc-CRBN) = target: T2, CRBN (NanoLuc-CRBN) (Homo sapiens, UniProt Q96SW2); test: Cellular CRBN NanoBRET engagement assay; format: cell-based; details: HEK293T cells stably expressing NanoLuc-CRBN; tracer 250 nM; two hours incubation
T2 construct: expressed in transfected cells; host or cells: HEK293T (lentiviral transduction, puromycin selection)
Protocol: HEK293T cells were transduced with lentivirus and put under puromycin selection (5 μg/mL) for two weeks to produce a cell line stably expressing CRBN with N-terminally fused NanoLuc luciferase (NanoLuc®-CRBN). After antibiotic selection, cells were cultured in DMEM (Gibco, Life Technologies™) supplemented with 10% FBS and 1 μg/mL puromycin to maintain stable NanoLuc®-CRBN expression.
To run the assay, cells were cultured to confluency in 10 cm^2 tissue culture treated plates (Corning®, 430165), washed with PBS and trypsinized at room temperature to detach from the cell culture plate. After 3-4 minutes, the trypsin was quenched with 5× volume DMEM media (Gibco, Life Technologies™) with 10% FBS and cells are collected by centrifugation (1000 rpm, 5 min). The supernatant was removed by vacuum aspiration and the pellet was then resuspended in Opti-MEM™ without phenol red. The density of this cell suspension was determined by diluting the cells 1:1 with trypan blue, then counting using a Countess™ II (Thermo Fischer Scientific) and then diluted to the required volume at 2×10^5 viable cells/mL in Opti-MEM™ I (Gibco, Life Technologies™). CRBN engagement tracer (stock at 10 μM in 31.25% PEG-400, 12.5 mM HEPES, pH 7.5, filtered using a 0.22 μm nitrocellulose membrane; final concentration in cell suspension for assay at 250 nM) was added to the suspension. Cells were then plated in a white/opaque cell culture treated 384-well plate (Corning®, 3570) at volume of 50 μL/well. After plating, the assay plate was centrifuged (500×g, 5 min) and covered in aluminum foil. Compounds for testing were added to the plate using D300e Digital Dispenser (HP) in duplicate 12-pt titrations from a 10 mM stock in DMSO, with DMSO normalized to 1% total volume. The plate was then placed in an incubator at 37° C., 5% CO2 for two hours. After incubation, the plate was removed and set on the bench to come to room temperature (˜10-15 min). The NanoLuc® substrate (500× solution)* and extracellular inhibitor (1500× solution)* were diluted in Opti-MEM™ I (Gibco, Life Technologies™) to prepare a 3× solution. This was then added to each well (25 μL/well). The plate was read on a Pherastar® FSX microplate reader with simultaneous dual emission capabilities to read 384-well plates at 450 and 520 nm. The NanoBRET™ ratio was calculated by dividing the signal at 520 nm by the signal at 450 nm for each sample. Duplicate points were averaged and plotted against [compound, M] to generate an ECso curve.

T2 sequence (Q96SW2 whole entry, species assumed): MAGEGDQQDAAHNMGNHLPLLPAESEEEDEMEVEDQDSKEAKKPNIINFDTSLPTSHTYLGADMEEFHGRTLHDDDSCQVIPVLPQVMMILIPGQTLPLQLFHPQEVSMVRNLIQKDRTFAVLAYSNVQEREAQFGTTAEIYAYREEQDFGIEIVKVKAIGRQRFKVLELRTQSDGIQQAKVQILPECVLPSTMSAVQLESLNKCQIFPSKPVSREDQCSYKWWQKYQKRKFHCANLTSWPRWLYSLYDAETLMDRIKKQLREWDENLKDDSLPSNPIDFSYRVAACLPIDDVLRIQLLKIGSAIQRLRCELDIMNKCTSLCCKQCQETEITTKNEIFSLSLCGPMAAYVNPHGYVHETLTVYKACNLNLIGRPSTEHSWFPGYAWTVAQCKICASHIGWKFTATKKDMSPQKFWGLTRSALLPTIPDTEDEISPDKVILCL
T1 sequence (Q9UKS7 whole entry): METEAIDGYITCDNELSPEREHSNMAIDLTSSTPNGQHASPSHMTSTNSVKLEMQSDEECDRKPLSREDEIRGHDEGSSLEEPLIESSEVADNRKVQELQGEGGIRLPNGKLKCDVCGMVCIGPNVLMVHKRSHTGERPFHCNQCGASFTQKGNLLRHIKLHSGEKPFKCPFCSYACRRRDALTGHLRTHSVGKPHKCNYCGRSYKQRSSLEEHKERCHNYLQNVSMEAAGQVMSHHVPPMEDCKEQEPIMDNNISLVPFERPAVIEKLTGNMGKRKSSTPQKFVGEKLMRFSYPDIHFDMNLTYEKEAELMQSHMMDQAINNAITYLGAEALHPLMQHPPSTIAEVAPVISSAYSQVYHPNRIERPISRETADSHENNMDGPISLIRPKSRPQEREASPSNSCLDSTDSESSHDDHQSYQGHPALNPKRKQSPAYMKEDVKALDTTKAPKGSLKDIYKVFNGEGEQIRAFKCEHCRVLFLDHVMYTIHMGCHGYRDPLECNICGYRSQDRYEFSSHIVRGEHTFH
T1 sequence (Q96SW2 whole entry): as the sequence (Q96SW2 whole entry, species assumed) above
T1 sequence (Q16531 whole entry partner): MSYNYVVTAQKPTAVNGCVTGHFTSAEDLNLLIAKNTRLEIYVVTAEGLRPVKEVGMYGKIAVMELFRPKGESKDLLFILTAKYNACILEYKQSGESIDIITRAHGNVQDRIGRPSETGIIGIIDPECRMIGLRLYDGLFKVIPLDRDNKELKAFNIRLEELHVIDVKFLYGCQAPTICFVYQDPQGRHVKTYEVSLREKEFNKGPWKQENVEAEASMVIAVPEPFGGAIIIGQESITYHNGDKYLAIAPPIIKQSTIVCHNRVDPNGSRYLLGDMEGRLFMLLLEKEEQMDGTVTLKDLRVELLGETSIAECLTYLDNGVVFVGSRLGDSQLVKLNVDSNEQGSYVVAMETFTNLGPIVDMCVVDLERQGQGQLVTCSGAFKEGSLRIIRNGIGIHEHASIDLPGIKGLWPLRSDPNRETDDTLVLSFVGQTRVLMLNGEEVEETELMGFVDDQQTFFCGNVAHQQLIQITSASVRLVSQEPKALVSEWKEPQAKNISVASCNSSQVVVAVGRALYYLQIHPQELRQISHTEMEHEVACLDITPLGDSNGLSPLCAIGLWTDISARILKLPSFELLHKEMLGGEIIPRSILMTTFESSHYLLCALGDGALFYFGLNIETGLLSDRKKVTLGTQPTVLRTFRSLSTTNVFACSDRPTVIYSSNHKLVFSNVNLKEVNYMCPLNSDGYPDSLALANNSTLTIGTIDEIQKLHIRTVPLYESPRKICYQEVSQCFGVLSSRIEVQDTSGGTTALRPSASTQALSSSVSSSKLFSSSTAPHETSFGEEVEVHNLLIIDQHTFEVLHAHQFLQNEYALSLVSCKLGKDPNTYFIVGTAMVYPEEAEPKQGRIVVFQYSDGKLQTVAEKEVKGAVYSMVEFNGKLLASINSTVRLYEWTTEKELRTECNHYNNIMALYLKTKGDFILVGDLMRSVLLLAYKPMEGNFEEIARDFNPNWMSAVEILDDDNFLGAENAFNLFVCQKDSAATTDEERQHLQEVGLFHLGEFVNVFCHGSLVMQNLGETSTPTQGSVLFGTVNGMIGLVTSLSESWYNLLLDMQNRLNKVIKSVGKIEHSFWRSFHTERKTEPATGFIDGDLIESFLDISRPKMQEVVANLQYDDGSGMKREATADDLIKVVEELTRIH

Compound | inhibition at 10 µM (IKZF2 (Helios)) [%] | DC50 (IKZF2 (Helios)) [nM] | IC50 (CRBN (NanoLuc-CRBN)) [nM]
COc1cccc(CN2CCC(O)(c3ccc4c(c3)C(=O)N(C3CCC(=O)NC3=O)C4=O)CC2)c1 (stereo not shown) [Compound 10] | 77 | 16 | –
O=C1CCC(N2C(=O)c3ccc(C4(O)CCN(Cc5cccc6ccccc56)CC4)cc3C2=O)C(=O)N1 (stereo not shown) [Compound 9] | 72 | 14 | 15
N#Cc1ccc(Oc2cccc(CN3CCC(O)(c4ccc5c(c4)C(=O)N(C4CCC(=O)NC4=O)C5=O)CC3)c2)cc1 (stereo not shown) [Compound 5] | 77 | 4.3 | 24
O=C1CCC(N2C(=O)c3ccc(C4(O)CCN(Cc5ccc6ccccc6c5)CC4)cc3C2=O)C(=O)N1 (stereo not shown) [Compound 17, 2-(2,6-dioxo-3-piperidyl)-5-[4-hydroxy-1-(2-naphthylmethyl)-4-piperidyl]isoindoline-1,3-dione] | 80 | 13 | 200
O=C1CCC(N2C(=O)c3ccc(C4=CCN(Cc5ccccc5)CC4)cc3C2=O)C(=O)N1 (stereo not shown) [Compound 19, 5-(1-Benzyl-1,2,3,6-tetrahydropyridin-4-yl)-2-(2,6-dioxopiperidin-3-yl)isoindoline-1,3-dione] | 30 | – | 1700
COc1ccc(Oc2cccc(CN3CCC(O)(c4ccc5c(c4)C(=O)N(C4CCC(=O)NC4=O)C5=O)CC3)c2)cc1 (stereo not shown) [Compound 2] | 80 | 5.1 | 41
O=C1CCC(N2C(=O)c3ccc(C4(O)CCN(Cc5ccccc5C(F)(F)F)CC4)cc3C2=O)C(=O)N1 (stereo not shown) [Compound 14] | 57 | 20 | 62
O=C1CCC(N2C(=O)c3ccc(C4CCN(Cc5cccc(Nc6ccccn6)n5)CC4)cc3C2=O)C(=O)N1 (stereo not shown) [Compound 11] | 45 | – | 240
O=C1CCC(N2C(=O)c3ccc(C4(O)CCN(Cc5ccc(OC(F)F)cc5)CC4)cc3C2=O)C(=O)N1 (stereo not shown) [Compound 13] | 74 | 19 | –
O=C1CCC(N2C(=O)c3ccc(C4CCN(Cc5ccccc5)CC4)cc3C2=O)C(=O)N1 (stereo not shown) [Compound 20] | 45 | – | –
O=C1CCC(N2C(=O)c3ccc(C4(O)CCN(Cc5ccc(C(F)(F)F)cc5)CC4)cc3C2=O)C(=O)N1 (stereo not shown) [Compound 16] | 69 | 56 | –
O=C1CCC(N2C(=O)c3ccc(C4(O)CCN(Cc5cc(F)cc(F)c5)CC4)cc3C2=O)C(=O)N1 (stereo not shown) [Compound 12] | 76 | 61 | –
O=C1CCC(N2C(=O)c3ccc(C4(O)CCN(Cc5ccccc5)CC4)cc3C2=O)C(=O)N1 (stereo not shown) [Compound 18, 5-(1-benzyl-4-hydroxypiperidin-4-yl)-2-(2,6-dioxopiperidin-3-yl)isoindoline-1,3-dione] | 70 | 22 | 65
O=C1CCC(N2C(=O)c3ccc(C4(O)CCN(Cc5ccc6cc(-c7ccccc7)nn6c5)CC4)cc3C2=O)C(=O)N1 (stereo not shown) [Compound 1, 2-(2,6-dioxo-3-piperidyl)-5-[4-hydroxy-1-[(2-phenylpyrazolo[1,5-a]pyridin-6-yl)methyl]-4-piperidyl]isoindoline-1,3-dione] | 80 | 4.9 | 38
O=C1CCC(N2C(=O)c3ccc(C4(O)CCN(CC5CCOCC5)CC4)cc3C2=O)C(=O)N1 (stereo not shown) [Compound 7] | 55 | 55 | 56
O=C1CCC(N2C(=O)c3ccc(C4(O)CCN(Cc5cccc(Oc6ccc(F)cc6)c5)CC4)cc3C2=O)C(=O)N1 (stereo not shown) [Compound 6] | 77 | 7.3 | < 2.6
O=C1CCC(N2C(=O)c3ccc(C4(O)CCN(Cc5ccc(F)c(Oc6ccccc6)c5)CC4)cc3C2=O)C(=O)N1 (stereo not shown) [Compound 4] | 73 | 23 | 88
O=C1CCC(N2C(=O)c3ccc(C4(O)CCN(Cc5cccc(Oc6ccc(Cl)cc6)c5)CC4)cc3C2=O)C(=O)N1 (stereo not shown) [Compound 3] | 79 | 8.8 | 54
O=C1CCC(N2C(=O)c3ccc(C4(O)CCN(Cc5cccc(Nc6ccccn6)n5)CC4)cc3C2=O)C(=O)N1 (stereo not shown) [Compound 8] | 71 | 24 | 76
O=C1CCC(N2C(=O)c3ccc(C4(O)CCN(Cc5cccc(Oc6ccccc6)c5)CC4)cc3C2=O)C(=O)N1 (stereo not shown) [Compound 15] | 76 | 4.2 | 31
